Assays:
Format in all cases: in vivo, human
monocytes = test: Monocyte count in blood, cytometry, before/after oral prednisone; details: after three days of oral prednisone; all disease groups; mean pre drug 369 (121); adjusted p-value < 0.001
Source text: (§1) The inventive biomarkers were identified in a study of the effects of oral prednisone on biological markers of allergy and asthma. Eighty subjects were enrolled in the study, 23 with atopic asthma, 28 with allergy alone, 26 with neither allergy nor asthma (healthy controls), and 3 with asthma alone. Allergy was defined by a positive skin prick test. Mild asthma was defined as positive methacholine challenge within the last three months, as well as one or more of documented diagnosis of asthma, history of cough, recurrent wheeze, recurrent difficult breathing, and recurrent chest tightening. […] Cellular markers in the blood samples were evaluated using the SurroScan™ microvolume laser scanning cytometry system for multiparameter cellular analysis. […] In addition, the relative levels of 49 different cell surface antigens (activation antigens, co-stimulatory molecules, adhesion molecules, antigen receptors, cytokine receptors) on specific cell populations were measured. […] Each fluorophore was measured in a separate detection channel, and images were converted to flow cytometry standard format and analyzed with FlowJo™ cytometry analysis software. […] Following data acquisition, variables were analyzed to assess differences in subject groups before drug administration, as well as changes following drug administration. […]

[1] = tested on: CD89 expression on granulocytes; test: CD89 expression on granulocytes in blood, microvolume laser scanning cytometry, before/after oral prednisone; details: after three days of oral prednisone, adjusted p-value < 0.001
Source text: as §1

[2] = tested on: HLA class II expression on B cells; test: HLA class II expression on B cells in blood, cytometry, before/after oral prednisone; details: after three days of oral prednisone, all disease groups, adjusted p-value < 0.001
Source text: The inventive biomarkers were identified in a study of the effects of oral prednisone on biological markers of allergy and asthma. Eighty subjects were enrolled in the study, 23 with atopic asthma, 28 with allergy alone, 26 with neither allergy nor asthma (healthy controls), and 3 with asthma alone. Allergy was defined by a positive skin prick test. Mild asthma was defined as positive methacholine challenge within the last three months, as well as one or more of documented diagnosis of asthma, history of cough, recurrent wheeze, recurrent difficult breathing, and recurrent chest tightening. Approximately half of the subjects from each disease group were given oral prednisone for three days, while the other half was given a placebo. Blood samples were taken before treatment and after three days of treatment with oral prednisone or placebo. Cellular markers in the blood samples were evaluated using the SurroScan™ microvolume laser scanning cytometry system for multiparameter cellular analysis. Monoclonal antigen-specific antibodies were purchased from commercial vendors and coupled to one of three different fluorophores, Cy5, Cy5.5, and Cy7-APC. Assays were performed to monitor cell counts of more than 200 different cell populations, including granulocytes, eosinophils, monocytes, CD4 and CD8 T cells, B cells, and NK cells. In addition, the relative levels of 49 different cell surface antigens (activation antigens, co-stimulatory molecules, adhesion molecules, antigen receptors, cytokine receptors) on specific cell populations were measured. […] Each fluorophore was measured in a separate detection channel, and images were converted to flow cytometry standard format and analyzed with FlowJo™ cytometry analysis software. […] Following data acquisition, variables were analyzed to assess differences in subject groups before drug administration, as well as changes following drug administration. A total of 713 variables, including cell populations, cell surface antigen expression, and soluble factors, were analyzed. […]

[3] = tested on: CD62L expression on B cells; test: CD62L expression on B cells in blood, cytometry, before/after oral prednisone; details: after three days of oral prednisone; all disease groups; mean pre drug 2998 (505); adjusted p-value < 0.001
Source text: as §1

MMP-3 = MMP-3 concentration, sandwich ELISA, before/after oral prednisone; details: after three days of oral prednisone; all disease groups; mean pre drug 37 (29); adjusted p-value < 0.001
Source text: (§2) The inventive biomarkers were identified in a study of the effects of oral prednisone on biological markers of allergy and asthma. Eighty subjects were enrolled in the study, 23 with atopic asthma, 28 with allergy alone, 26 with neither allergy nor asthma (healthy controls), and 3 with asthma alone. Allergy was defined by a positive skin prick test. Mild asthma was defined as positive methacholine challenge within the last three months, as well as one or more of documented diagnosis of asthma, history of cough, recurrent wheeze, recurrent difficult breathing, and recurrent chest tightening. Approximately half of the subjects from each disease group were given oral prednisone for three days, while the other half was given a placebo. Blood samples were taken before treatment and after three days of treatment with oral prednisone or placebo. […] Finally, the chemiluminescent alkaline phosphatase substrate was added and incubated before reading. Standard curves and analyte amounts were determined using curve fitting techniques. Following data acquisition, variables were analyzed to assess differences in subject groups before drug administration, as well as changes following drug administration. A total of 713 variables, including cell populations, cell surface antigen expression, and soluble factors, were analyzed. […]

[4] = tested on: CD38 expression on CD4 T cells; test: CD38 expression on CD4 T cells in blood, cytometry, before/after oral prednisone; details: after three days of oral prednisone; all disease groups; mean pre drug 32.9 (9.8); adjusted p-value < 0.001
Source text: as §1

SAA = SAA concentration, sandwich ELISA, before/after oral prednisone; details: after three days of oral prednisone; all disease groups; mean pre drug 2.73 (3.3); adjusted p-value < 0.001
Source text: as §2

[5] = tested on: HLA class II expression on monocytes; test: HLA class II expression on monocytes in blood, cytometry, before/after oral prednisone; details: after three days of oral prednisone, all disease groups, adjusted p-value < 0.001
Source text: The inventive biomarkers were identified in a study of the effects of oral prednisone on biological markers of allergy and asthma. Eighty subjects were enrolled in the study, 23 with atopic asthma, 28 with allergy alone, 26 with neither allergy nor asthma (healthy controls), and 3 with asthma alone. Allergy was defined by a positive skin prick test. Mild asthma was defined as positive methacholine challenge within the last three months, as well as one or more of documented diagnosis of asthma, history of cough, recurrent wheeze, recurrent difficult breathing, and recurrent chest tightening. Approximately half of the subjects from each disease group were given oral prednisone for three days, while the other half was given a placebo. Blood samples were taken before treatment and after three days of treatment with oral prednisone or placebo. Cellular markers in the blood samples were evaluated using the SurroScan™ microvolume laser scanning cytometry system for multiparameter cellular analysis. Monoclonal antigen-specific antibodies were purchased from commercial vendors and coupled to one of three different fluorophores, Cy5, Cy5.5, and Cy7-APC. Assays were performed to monitor cell counts of more than 200 different cell populations, including granulocytes, eosinophils, monocytes, CD4 and CD8 T cells, B cells, and NK cells. In addition, the relative levels of 49 different cell surface antigens (activation antigens, co-stimulatory molecules, adhesion molecules, antigen receptors, cytokine receptors) on specific cell populations were measured. The prepared antibody-dye reagents were combined into cocktails and incubated with aliquots of whole or red blood cell-lysed blood in the dark at room temperature for 20 minutes. The samples were then diluted with an appropriate buffer and loaded into capillary arrays for analysis. Each fluorophore was measured in a separate detection channel, and images were converted to flow cytometry standard format and analyzed with FlowJo™ cytometry analysis software. Template gates were used to enumerate the cell populations of interest in all of the assays. Following data acquisition, variables were analyzed to assess differences in subject groups before drug administration, as well as changes following drug administration. A total of 713 variables, including cell populations, cell surface antigen expression, and soluble factors, were analyzed. […] Univariate tests were performed on individual variables, and the step-down Bonferroni p-value adjustment method of Holm was employed to control for multiple comparisons. The Bonferroni correction, which reduces the number of false positives, is described above. Univariate tests were performed on the data before and after drug administration for both the drug and placebo groups. In order to determine whether any non-normality of the data affected the tests, both non-parametric tests (sign rank or sign) and parametric paired t-tests were performed. Statistical tests for normality, skewness, and kurtosis were performed per variable to assess normality. For sufficiently normally distributed data, the paired t-test result was used; otherwise, the nonparametric result was used. All p-values were adjusted using the step-down Bonferroni method, maintaining the overall study false positive rate below 5%. […] When the analysis was performed on the separate disease classes individually, no significant differences were found before and after drug administration. Additionally, a linear-mixed model was used to evaluate fixed and random effects for the prednisone and placebo groups. This model notes the difference in response in the drug and placebo to indicate whether the observed trends can be attributed to the drug alone. The model, executed with PROC MIXED in SAS™, used the three fixed effects of drug, time, and (drug×time) to fit the data.

**Q.** What does the source list for `C[C@]12C=CC(=O)C=C1CC[C@@H]1[C@@H]2C(=O)C[C@@]2(C)[C@H]1CC[C@]2(O)C(=O)CO` [prednisone]?
**A.** Monocytes (count), Mean Post Drug (SD) (monocytes): 478 (160) cells/μl; CD89+ granulocyte population, Mean Post Drug (SD) ([1]; all disease groups (atopic, atopic asthmatic, healthy), mean pre drug 85 (20)): 96 (9) % of total granulocytes; CD89 on granulocytes (expression intensity), Mean Post Drug (SD) ([1]; all disease groups, mean pre drug 2047 (1549)): 2527 (1691) arbitrary units; HLA-DQ on B cells (expression intensity), Mean Post Drug (SD) ([2]; mean pre drug 3123 (1090)): 1680 (817) arbitrary units; HLA-DR on B cells (expression intensity), Mean Post Drug (SD) ([2]; mean pre drug 8108 (2711)): 4486 (2025) arbitrary units; HLA-PAN on B cells (expression intensity), Mean Post Drug (SD) ([2]; mean pre drug 11684 (3190)): 6550 (3123) arbitrary units; CD62L on B cells (expression intensity), Mean Post Drug (SD) [3]: 2479 (478) arbitrary units; MMP-3 concentration, Mean Post Drug (SD) (MMP-3): 188 (140) ng/ml; CD38+ CD4 T cells, Mean Post Drug (SD) [4]: 29.3 (9.1) % of all CD4 T cells; SAA concentration, Mean Post Drug (SD) (SAA): 6.71 (14.5) μg/ml; HLADQ+ monocyte population, Mean Post Drug (SD) ([5]; mean pre drug 8.7 (4.39)): 3.6 (2.49) % of total monocytes; HLADR+ monocyte population, Mean Post Drug (SD) ([5]; mean pre drug 84.4 (14.0)): 75.4 (16.9) % of total monocytes; HLAPAN+ monocyte population, Mean Post Drug (SD) ([5]; mean pre drug 91.8 (8.4)): 83.0 (15.1) % of total monocytes; HLA-DQ on monocytes (expression intensity), Mean Post Drug (SD) ([5]; mean pre drug 165 (103)): 69 (52) arbitrary units; HLA-DR on monocytes (expression intensity), Mean Post Drug (SD) ([5]; mean pre drug 2966 (1068)): 1970 (729) arbitrary units; HLA-PAN on monocytes (expression intensity), Mean Post Drug (SD) ([5]; mean pre drug 4961 (1738)): 3196 (1046) arbitrary units
